Results on 20 compounds are retold here after article PMC7488488 (Acta Pharmaceutica Sinica. B, 2019).

Bounds are passed on as bounds.

The subject of one assay is U87MG cells. Briefly: MTT cell proliferation assay. In kind it is cell-based. Particulars: Homo sapiens, U-87 MG, 24 h, read-out: Anti-proliferative activity IC50, U87MG. On the technique in general: Tetrazolium dyes change colour on reduction, which living cells bring about.
In a further assay the test system is U251 cells. Briefly: MTT cell proliferation assay. The class given is cell-based. The conditions noted are these: Homo sapiens, U-251, 24 h, read-out: Anti-proliferative activity IC50, U251.
Another assay concerns the target MDM2 (Homo sapiens, UniProt Q00987). Put plainly: TR-FRET. In kind it is binding. Particulars: for inhibition at 1 µM: read-out: Inhibition rate at 1.0 μmol/L, MDM2. A general note: Time-resolved FRET reads energy transfer from a long-lived donor to a nearby acceptor.
Another assay relates to T98G cells. Put plainly: MTT cell proliferation assay. The class given is cell-based. Particulars: Homo sapiens, T98G, 24 h, read-out: Anti-proliferative activity IC50, T98G.

MDM2, sequence (Q00987 whole entry): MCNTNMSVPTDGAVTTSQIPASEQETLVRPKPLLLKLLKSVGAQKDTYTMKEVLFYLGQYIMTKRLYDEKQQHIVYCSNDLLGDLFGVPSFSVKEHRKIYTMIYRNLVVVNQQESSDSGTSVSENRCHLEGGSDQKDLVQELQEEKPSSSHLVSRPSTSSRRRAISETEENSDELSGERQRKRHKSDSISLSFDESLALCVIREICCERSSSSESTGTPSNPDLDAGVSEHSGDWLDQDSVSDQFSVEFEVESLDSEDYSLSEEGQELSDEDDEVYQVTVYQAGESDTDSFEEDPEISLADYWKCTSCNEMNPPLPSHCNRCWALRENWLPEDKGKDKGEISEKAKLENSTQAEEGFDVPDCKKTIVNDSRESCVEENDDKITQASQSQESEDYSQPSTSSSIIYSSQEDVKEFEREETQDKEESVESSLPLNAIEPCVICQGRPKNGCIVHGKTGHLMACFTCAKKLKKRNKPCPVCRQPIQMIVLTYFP

Take `CCOC(=O)[C@H]1Cc2c(cc([N+](=O)[O-])cc2[N+](=O)[O-])[C@H](O)[C@]12C(=O)Nc1c(F)cccc12` [4c′, Ethyl (1′S,3S,3′S)-7-fluoro-1′-hydroxy-5′,7′-dinitro-2-oxo-3′,4′-dihydro-1′H-spiro[indoline-3,2′-naphthalene]-3′-carboxylate]: the figures for the IC50 in the assay with U87MG cells, with U251 cells and in the assay with T98G cells were 59.9 µM, over 50 µM and over 50 µM, respectively. Besides, the inhibition at 1 µM on MDM2 was 45.3%.

`CCOC(=O)[C@H]1Cc2c(cc([N+](=O)[O-])cc2[N+](=O)[O-])[C@H](O)[C@]12C(=O)Nc1ccc(Br)cc12` [4g′, Ethyl (1′S,3S,3′S)-5-bromo-1′-hydroxy-5′,7′-dinitro-2-oxo-3′,4′-dihydro-1′H-spiro[indoline-3,2′-naphthalene]-3′-carboxylate]: the IC50 is over 50 µM with U87MG cells, over 50 µM in the assay on U251 cells, 2500 ± 300 nM at MDM2 and over 50 µM with T98G cells. The inhibition at 1 µM at MDM2 was 51.9%.

On to `O=C(c1ccc(Br)cc1)[C@H]1Cc2c(cc([N+](=O)[O-])cc2[N+](=O)[O-])[C@@H](O)[C@@]12C(=O)Nc1ccccc12` [4o, (1′R,3R,3′S)-3′-(4-Bromobenzoyl)-1′-hydroxy-5′,7′-dinitro-3′,4′-dihydro-1′H-spiro[indoline-3,2′-naphthalen]-2-one], for which the IC50 was 41.6 ± 4.3 µM in the assay on U87MG cells, 44.2 ± 4.6 µM in the assay on U251 cells and 45.7 ± 6.7 µM with T98G cells. In addition, the inhibition at 1 µM at MDM2 amounted to 47.1 ± 5.8%.

For the compound `CCOC(=O)[C@H]1Cc2c(cc([N+](=O)[O-])cc2[N+](=O)[O-])[C@H](O)[C@]12C(=O)Nc1ccc([N+](=O)[O-])cc12` [4i′, Ethyl (1′S,3S,3′S)-1′-hydroxy-5,5′,7′-trinitro-2-oxo-3′,4′-dihydro-1′H-spiro[indoline-3,2′-naphthalene]-3′-carboxylate], the IC50 was 47.9 µM in the assay on U87MG cells, over 50 µM in the assay with U251 cells and over 50 µM in the assay on T98G cells. On MDM2, the inhibition at 1 µM is 39.3%.

Turning to `O=C(c1ccc(Cl)c(Cl)c1)[C@H]1Cc2c(cc([N+](=O)[O-])cc2[N+](=O)[O-])[C@@H](O)[C@@]12C(=O)Nc1ccccc12` [4n, (1′R,3R,3′S)-3′-(3,4-Dichlorobenzoyl)-1′-hydroxy-5′,7′-dinitro-3′,4′-dihydro-1′H-spiro[indoline-3,2′-naphthalen]-2-one], the figures for the IC50 with U87MG cells, in the assay on U251 cells and in the assay with T98G cells were 34.9 ± 2.62 µM, 25.9 ± 3.5 µM and 32.5 ± 2.9 µM, respectively. For the same compound, at MDM2, the inhibition at 1 µM stood at 38.4 ± 2.7%.

For `O=C(c1ccc(F)cc1)[C@H]1Cc2c(cc([N+](=O)[O-])cc2[N+](=O)[O-])[C@H](O)[C@]12C(=O)Nc1ccccc12` [4m′, (1′S,3S,3′S)-3′-(4-Fluorobenzoyl)-1′-hydroxy-5′,7′-dinitro-3′,4′-dihydro-1′H-spiro[indoline-3,2′-naphthalen]-2-one], the IC50 with U87MG cells, with U251 cells and in the assay with T98G cells was over 50 µM in each case. Besides, the inhibition at 1 µM on MDM2 is 36.2%.

For `CCOC(=O)[C@H]1Cc2c(cc([N+](=O)[O-])cc2[N+](=O)[O-])[C@H](O)[C@]12C(=O)Nc1cc(Cl)ccc12` [4e′, Ethyl (1′S,3S,3′S)-6-chloro-1′-hydroxy-5′,7′-dinitro-2-oxo-3′,4′-dihydro-1′H-spiro[indoline-3,2′-naphthalene]-3′-carboxylate], the IC50 in the assay on U87MG cells, in the assay on U251 cells and in the assay on T98G cells was over 50 µM in each case. The inhibition at 1 µM on MDM2 was 48.3%.

For the compound `CCOC(=O)[C@H]1Cc2c(cc([N+](=O)[O-])cc2[N+](=O)[O-])[C@@H](O)[C@@]12C(=O)Nc1ccc(C)cc12` [4j, Ethyl (1′R,3R,3′S)-1′-hydroxy-5-methyl-5′,7′-dinitro-2-oxo-3′,4′-dihydro-1′H-spiro[indoline-3,2′-naphthalene]-3′-carboxylate], the values for the IC50 in the assay on U87MG cells, in the assay with U251 cells and with T98G cells were 31.1 ± 1.76 µM, 38.9 ± 4.5 µM and 39.3 ± 3.6 µM, respectively. Besides, the inhibition at 1 µM on MDM2 was found to be 64.4 ± 7.2%.

As for `O=C(c1ccccc1)[C@H]1Cc2c(cc([N+](=O)[O-])cc2[N+](=O)[O-])[C@@H](O)[C@@]12C(=O)Nc1ccccc12` [4k, (1′R,3R,3′S)-3′-Benzoyl-1′-hydroxy-5′,7′-dinitro-3′,4′-dihydro-1′H-spiro[indoline-3,2′-naphthalen]-2-one], the IC50 with U87MG cells was determined as 38.7 ± 6.5 µM; with U251 cells, 53.8 ± 9 µM; in the assay on T98G cells it was 43.7 ± 6.6 µM. Moreover, the inhibition at 1 µM at MDM2 was determined as 46.4 ± 4.9%.

Consider `COc1ccc(C(=O)[C@H]2Cc3c(cc([N+](=O)[O-])cc3[N+](=O)[O-])[C@H](O)[C@]23C(=O)Nc2ccccc23)cc1` [4p′, (1′S,3S,3′S)-1′-Hydroxy-3′-(4-methoxybenzoyl)-5′,7′-dinitro-3′,4′-dihydro-1′H-spiro[indoline-3,2′-naphthalen]-2-one], for which the IC50 in the assay with U87MG cells, in the assay with U251 cells and with T98G cells was over 50 µM each time. For the same compound, the inhibition at 1 µM at MDM2 is 26.9%.

Consider `O=C(c1ccccc1F)[C@H]1Cc2c(cc([N+](=O)[O-])cc2[N+](=O)[O-])[C@H](O)[C@]12C(=O)Nc1ccccc12` [4l′, (1′S,3S,3′S)-3′-(2-Fluorobenzoyl)-1′-hydroxy-5′,7′-dinitro-3′,4′-dihydro-1′H-spiro[indoline-3,2′-naphthalen]-2-one], for which the IC50 in the assay with U87MG cells, with U251 cells and in the assay with T98G cells was over 50 µM in each case. Besides, the inhibition at 1 µM on MDM2 was 31.6%.

Turning to `COc1ccc(C(=O)[C@H]2Cc3c(cc([N+](=O)[O-])cc3[N+](=O)[O-])[C@@H](O)[C@@]23C(=O)Nc2ccccc23)cc1` [4p, (1′R,3R,3′S)-1′-Hydroxy-3′-(4-methoxybenzoyl)-5′,7′-dinitro-3′,4′-dihydro-1′H-spiro[indoline-3,2′-naphthalen]-2-one], the values for the IC50 with U87MG cells, with U251 cells and in the assay on T98G cells were 39.9 ± 4.2 µM, 43.2 ± 5.9 µM and 45.9 ± 8.1 µM, respectively. In addition, at MDM2, the inhibition at 1 µM was found to be 35.7 ± 4.9%.

In the case of `CCOC(=O)[C@H]1Cc2c(cc([N+](=O)[O-])cc2[N+](=O)[O-])[C@@H](O)[C@@]12C(=O)Nc1ccc([N+](=O)[O-])cc12` [4i, Ethyl (1′R,3R,3′S)-1′-hydroxy-5,5′,7′-trinitro-2-oxo-3′,4′-dihydro-1′H-spiro[indoline-3,2′-naphthalene]-3′-carboxylate], the results for the IC50 in the assay on U87MG cells, in the assay with U251 cells and in the assay on T98G cells were 25.6 ± 2.8 µM, 36.2 ± 4.6 µM and 41.2 ± 6.1 µM, respectively. On MDM2, the inhibition at 1 µM is 47.7 ± 4.1%.

As for `O=C(c1ccc(Br)cc1)[C@H]1Cc2c(cc([N+](=O)[O-])cc2[N+](=O)[O-])[C@H](O)[C@]12C(=O)Nc1ccccc12` [4o′, (1′S,3S,3′S)-3′-(4-Bromobenzoyl)-1′-hydroxy-5′,7′-dinitro-3′,4′-dihydro-1′H-spiro[indoline-3,2′-naphthalen]-2-one], the IC50 in the assay on U87MG cells, in the assay on U251 cells and in the assay with T98G cells was over 50 µM each time. In addition, the inhibition at 1 µM at MDM2 was 29%.

As to `CCOC(=O)[C@H]1Cc2c(cc([N+](=O)[O-])cc2[N+](=O)[O-])[C@@H](O)[C@@]12C(=O)Nc1ccc(F)cc12` [4b, Ethyl (1′R,3R,3′S)-5-fluoro-1′-hydroxy-5′,7′-dinitro-2-oxo-3′,4′-dihydro-1′H-spiro[indoline-3,2′-naphthalene]-3′-carboxylate], the figures for the IC50 in the assay with U87MG cells, with U251 cells and in the assay with T98G cells were 25.7 ± 1.4 µM, 32.6 ± 3.5 µM and 49 ± 6.3 µM, respectively. For the same compound, the inhibition at 1 µM on MDM2 is 81.4 ± 10.2%.

For `CCOC(=O)[C@H]1Cc2c(cc([N+](=O)[O-])cc2[N+](=O)[O-])[C@@H](O)[C@@]12C(=O)Nc1cc(Cl)ccc12` [4e, Ethyl (1′R,3R,3′S)-6-chloro-1′-hydroxy-5′,7′-dinitro-2-oxo-3′,4′-dihydro-1′H-spiro[indoline-3,2′-naphthalene]-3′-carboxylate], the results for the IC50 in the assay with U87MG cells, with U251 cells and in the assay with T98G cells were 19.2 ± 4.4 µM, 28.6 ± 2.9 µM and 22.5 ± 4.2 µM, respectively. For the same compound, at MDM2, the inhibition at 1 µM was determined as 76.4 ± 6%.

`CCOC(=O)[C@H]1Cc2c(cc([N+](=O)[O-])cc2[N+](=O)[O-])[C@H](O)[C@]12C(=O)Nc1cc(Br)ccc12` [4h′, Ethyl (1′S,3S,3′S)-6-bromo-1′-hydroxy-5′,7′-dinitro-2-oxo-3′,4′-dihydro-1′H-spiro[indoline-3,2′-naphthalene]-3′-carboxylate]: the IC50 in the assay with U87MG cells is 47.6 µM; with U251 cells, over 50 µM; in the assay on T98G cells, over 50 µM. At MDM2, the inhibition at 1 µM was 61.2%.

On to `CCOC(=O)[C@H]1Cc2c(cc([N+](=O)[O-])cc2[N+](=O)[O-])[C@H](O)[C@]12C(=O)Nc1ccc(C)cc12` [4j′, Ethyl (1′S,3S,3′S)-1′-hydroxy-5-methyl-5′,7′-dinitro-2-oxo-3′,4′-dihydro-1′H-spiro[indoline-3,2′-naphthalene]-3′-carboxylate], for which the IC50 with U87MG cells, in the assay with U251 cells and in the assay on T98G cells was over 50 µM each time. In addition, the inhibition at 1 µM at MDM2 was 49.2%.

With `CCOC(=O)[C@H]1Cc2c(cc([N+](=O)[O-])cc2[N+](=O)[O-])[C@@H](O)[C@@]12C(=O)Nc1c(F)cccc12` [4c, Ethyl (1′R,3R,3′S)-7-fluoro-1′-hydroxy-5′,7′-dinitro-2-oxo-3′,4′-dihydro-1′H-spiro[indoline-3,2′-naphthalene]-3′-carboxylate], the results for the IC50 in the assay with U87MG cells, in the assay on U251 cells and in the assay on T98G cells were 19.4 ± 2.3 µM, 34.3 ± 4 µM and 51.6 ± 6.2 µM, respectively. The inhibition at 1 µM on MDM2 came to 76.5 ± 13.7%.

With `O=C(c1ccc(Cl)c(Cl)c1)[C@H]1Cc2c(cc([N+](=O)[O-])cc2[N+](=O)[O-])[C@H](O)[C@]12C(=O)Nc1ccccc12` [4n′, (1′S,3S,3′S)-3′-(3,4-Dichlorobenzoyl)-1′-hydroxy-5′,7′-dinitro-3′,4′-dihydro-1′H-spiro[indoline-3,2′-naphthalen]-2-one], the IC50 in the assay on U87MG cells, with U251 cells and with T98G cells was over 50 µM throughout. For the same compound, the inhibition at 1 µM on MDM2 is 36.3%.

What is called IC50 is the concentration needed to halve the response being measured.
